{
  "source": "patent US20120004166A1",
  "about": "“ARYLOXYALKYLENE-SUBSTITUTED HYDROXYPHENYLHEXYNOIC ACIDS, PROCESS FOR PREPARATION THEREOF AND USE THEREOF AS A MEDICAMENT” (SANOFI, priority 2010, published 2012)",
  "target": "T1, GPCR GPR40 (Rattus norvegicus, UniProt Q8K3T4)",
  "T1 construct": "expressed in transfected cells; host or cells: HEK293",
  "T1 sequence (Q8K3T4 whole entry)": "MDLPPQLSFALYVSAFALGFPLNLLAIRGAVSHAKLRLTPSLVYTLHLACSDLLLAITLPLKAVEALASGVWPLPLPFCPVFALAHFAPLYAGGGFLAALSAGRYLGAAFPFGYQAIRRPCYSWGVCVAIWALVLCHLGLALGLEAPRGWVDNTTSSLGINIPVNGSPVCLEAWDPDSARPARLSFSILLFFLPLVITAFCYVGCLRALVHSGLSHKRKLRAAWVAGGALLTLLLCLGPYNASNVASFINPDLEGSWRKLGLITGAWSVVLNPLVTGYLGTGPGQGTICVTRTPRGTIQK",
  "assay": "In vitro FLIPR assay with recombinant cells which express the GPCR GPR40",
  "type": "cell-based",
  "conditions": "recombinant HEK293 cells expressing rat GPR40; agonist-induced change in intracellular Ca2+ (Fluo-4, FLIPR); 100% = 10 μM linoleic acid",
  "protocol": "In Vitro FLIPR Assay with Recombinant Cells which Express the GPCR GPR40\nFunction-testing assays were performed by means of the FLIPR technique (“Fluorescence Imaging Plate Reader”, Molecular Devices Corp.). To this end, agonist-induced changes in the intracellular concentration of Ca^2+ were determined in recombinant HEK293 cells which expressed the GPCR GPR40 (species: rat). For the studies, cells were sown into 96-well microtiter plates (60 000 cells/well) and left to grow overnight. The medium was removed and the cells were incubated in buffer which contained the fluorescent dye Fluo-4. After this loading with dye, the cells were washed, test substance was added and changes in the intracellular Ca^2+ concentration were measured in the FLIPR unit. Results were presented as the percentage change relative to the control (0%: no test substance added; 100%: 10 μM reference agonist linoleic acid added) and used to calculate dose/effect curves, and EC50 values were determined.",
  "data": [
    {"smiles": "CC#CC(CC(=O)O)c1ccc(OCC(CCC)COc2cccc(C(C)(C)C)c2)cc1", "note": "(stereo not drawn) [Example 45, 3-{4-[2-(3-tert-Butylphenoxymethyl)pentyloxy]phenyl}hex-4-ynoic acid]", "values": [
      {"measurement": "EC50", "result": 6850, "unit": "nM"}
    ]},
    {"smiles": "CC#CC(CC(=O)O)c1ccc(OCC(COc2ccc(C(F)(F)F)cc2)c2ccccc2)cc1", "note": "(stereo not drawn) [Example 46, 3-{4-[2-Phenyl-3-(4-trifluoromethylphenoxy)propoxy]phenyl}hex-4-ynoic acid]", "values": [
      {"measurement": "EC50", "result": 8490, "unit": "nM"}
    ]},
    {"smiles": "CC#CC(CC(=O)O)c1ccc(OCC(COc2cccc(C(C)(C)C)c2)c2ccccc2)cc1", "note": "(stereo not drawn) [Example 47, 3-{4-[3-(3-tert-Butylphenoxy)-2-phenylpropoxy]phenyl}hex-4-ynoic acid]", "values": [
      {"measurement": "EC50", "result": 8740, "unit": "nM"}
    ]},
    {"smiles": "CC#CC(CC(=O)O)c1ccc(OCC(COc2ccc(C(F)(F)F)cc2Cl)OCc2ccccc2)cc1", "note": "(stereo not drawn) [Example 48, 3-{4-[2-Benzyloxy-3-(2-chloro-4-trifluoromethylphenoxy)propoxy]phenyl}hex-4-ynoic acid]", "values": [
      {"measurement": "EC50", "result": 7500, "unit": "nM"}
    ]},
    {"smiles": "CC#CC(CC(=O)O)c1ccc(OCC(CO)COc2ccc(C#N)c(Cl)c2)cc1", "note": "(stereo not drawn) [Example 49, 3-{4-[3-(3-Chloro-4-cyanophenoxy)-2-hydroxymethylpropoxy]phenyl}hex-4-ynoic acid]", "values": [
      {"measurement": "EC50", "result": 150, "unit": "nM"}
    ]},
    {"smiles": "CC#CC(CC(=O)O)c1ccc(OCC(COC)COc2ccc(C#N)c(Cl)c2)cc1", "note": "(stereo not drawn) [Example 50, 3-{4-[3-(3-Chloro-4-cyanophenoxy)-2-methoxymethylpropoxy]phenyl}hex-4-ynoic acid]", "values": [
      {"measurement": "EC50", "result": 550, "unit": "nM"}
    ]},
    {"smiles": "CC#CC(CC(=O)O)c1ccc(OCC(COCC2CC2)COc2ccc(C#N)c(Cl)c2)cc1", "note": "(stereo not drawn) [Example 51, 3-{4-[3-(3-Chloro-4-cyanophenoxy)-2-cyclopropylmethoxymethylpropoxy]phenyl}hex-4-ynoic acid]", "values": [
      {"measurement": "EC50", "result": 2400, "unit": "nM"}
    ]},
    {"smiles": "CC#CC(CC(=O)O)c1ccc(OCC(O)COc2ccc(C(F)(F)F)cc2Cl)cc1", "note": "(stereo not drawn) [Example 52, 3-{4-[3-(2-Chloro-4-trifluoromethylphenoxy)-2-hydroxypropoxy]phenyl}hex-4-ynoic acid]", "values": [
      {"measurement": "EC50", "result": 990, "unit": "nM"}
    ]},
    {"smiles": "CC#CC(CC(=O)O)c1ccc(OCC(COc2ccc(C(F)(F)F)cc2Cl)OC)cc1", "note": "(stereo not drawn) [Example 53, 3-{4-[3-(2-chloro-4-trifluoromethylphenoxy)-2-methoxypropoxy]phenyl}hex-4-ynoic acid]", "values": [
      {"measurement": "EC50", "result": 200, "unit": "nM"}
    ]}
  ]
}
